# From ChEMBL document CHEMBL6153148, “Carboxamide-Bearing Panobinostat Analogues Designed To Interact with E103-D104 at the Cavity Opening of Class I HDAC Isoforms” (ACS Med Chem Lett, 2025)
# Target: Histone deacetylase 2 (Homo sapiens, UniProt Q92769)
# Experiment: Inhibition of human HDAC2 using RHKKAc as substrate by fluorescence based analysis
# Histone deacetylase 2, sequence (Q92769 whole entry): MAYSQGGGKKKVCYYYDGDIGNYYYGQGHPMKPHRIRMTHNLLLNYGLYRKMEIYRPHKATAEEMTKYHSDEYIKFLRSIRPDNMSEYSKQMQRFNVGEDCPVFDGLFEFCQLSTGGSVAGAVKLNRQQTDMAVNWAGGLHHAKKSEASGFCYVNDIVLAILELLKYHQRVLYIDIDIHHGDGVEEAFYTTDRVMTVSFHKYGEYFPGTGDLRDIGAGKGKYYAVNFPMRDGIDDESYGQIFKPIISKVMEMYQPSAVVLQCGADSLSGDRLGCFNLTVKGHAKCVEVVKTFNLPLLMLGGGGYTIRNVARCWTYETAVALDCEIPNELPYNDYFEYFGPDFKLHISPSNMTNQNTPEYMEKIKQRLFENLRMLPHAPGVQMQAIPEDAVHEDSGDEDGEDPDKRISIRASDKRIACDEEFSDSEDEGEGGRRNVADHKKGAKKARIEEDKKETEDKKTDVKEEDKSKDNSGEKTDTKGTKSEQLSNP
row,Compound,IC50 [nM]
1,NC(=O)[C@H]1Cc2c([nH]c3ccccc23)[C@H](c2ccc(/C=C/C(=O)NO)cc2)N1,3320
2,NC(=O)[C@@H]1Cc2c([nH]c3ccccc23)[C@@H](c2ccc(/C=C/C(=O)NO)cc2)N1,450
3,NC(=O)[C@H](Cc1c[nH]c2ccccc12)NCc1ccc(/C=C/C(=O)NO)cc1,350
4,NC(=O)[C@@H]1Cc2c([nH]c3ccccc23)[C@H](c2ccc(/C=C/C(=O)NO)cc2)N1,450

# Further compounds by falling IC50, results first:
row,IC50 [nM],Compound
1,3320,NC(=O)[C@H]1Cc2c([nH]c3ccccc23)[C@@H](c2ccc(/C=C/C(=O)NO)cc2)N1
2,530,Cc1[nH]c2ccccc2c1C[C@@H](NCc1ccc(/C=C/C(=O)NO)cc1)C(N)=O
3,420,NC(=O)[C@@H](Cc1c[nH]c2ccccc12)NCc1ccc(/C=C/C(=O)NO)cc1
4,150,Cc1[nH]c2ccccc2c1C[C@H](NCc1ccc(/C=C/C(=O)NO)cc1)C(N)=O
